US7754685B2, “Methods and pharmaceutical compositions for the treatment and prevention of hepatitis C infection” (Scynexis, Inc., priority 2005, dated 2010)
Read-outs that look alike come from different tables or passages of the source.

Assays:
[1] = test system: HCV RNA replicon ET; experiment: HCV RNA replicon assay in ET cell line, luciferase (LUC) endpoint, antiviral activity; format: cell-based; details: Hepatitis C virus; Example 6 (2′-C-methyl-cytidine combination experiment), single compound; read-out: EC50 of compound alone
Method: The compounds of the present invention were tested for activity against HCV using the methods adapted from those described by Kriger et al., 2001, Journal of Virology, 75:4614-4624, Pietschmann et al., 2002, Journal of Virology 76:4008-4021, and using HCV RNA constructs as described in U.S. Pat. No. 6,630,343. The contents of these references are hereby incorporated by reference in their entireties.
Compounds were examined in the human hepatoma cell line ET (lub ubi neo/ET), a HCV RNA replicon containing a stable luciferase (LUC) reporter. The HCV RNA replicon ET contains the 5′ end of HCV (with the HCV Internal Ribosome Entry Site (IRES) and the first few amino acids of the HCV core protein) which drives the production of a firefly luciferase (LUC), ubiquitin, and neomycin phosphotransferase (NeoR) fusion protein. Ubiquitin cleavage releases the LUC and NeoR proteins. The EMCV IRES element controls the translation of the HCV, […] NS3-NS5. The NS3 protein cleaves the HCV polyprotein to release the mature NS3, NS4A, NS4B, NS5A and NS5B proteins that are required for HCV replication. At the 3′ end of the replicon is the authentic 3′ NTR of HCV.
Cyclosporine A was also tested.

[2] = test system: Bovine Viral Diarrhea Virus (BVDV), NADL strain; experiment: BVDV cytopathic effect drug-drug combination assay in MDBK cells (XTT), antiviral; format: cell-based; details: in combination with IFN-α
[3] = test system: Madin-Darby bovine kidney (MDBK) cells; experiment: BVDV drug-drug combination assay, cytotoxicity to target cells; format: cell-based; details: in combination with IFN-α
Method: Phenazine methosulfate (PMS) solution was prepared at 0.15 mg/mL in PBS and stored in the dark at −20° C. XTT/PMS stock was prepared immediately before use by adding 40 μL of PMS per ml of XTT solution. Fifty microliters of XTT/PMS was added to each well of the plate and the plate was reincubated for 4 hours at 37° C. Plates were sealed with adhesive plate sealers and shaken gently or inverted several times to mix the soluble formazan product and the plate was read spectrophotometrically at 450/650 nm with a Molecular Devices Vmax plate reader.

[4] = test system: HCV RNA replicon ET; experiment: HCV RNA replicon drug-drug combination (checkerboard, MacSynergy II) antiviral synergy; format: cell-based
Method: Compounds and combinations were evaluated in the HCV replicon assay described in Example 2 with changes indicated below.
(§1) The HCV RNA replicon antiviral evaluation assay was utilized to examine the efficacy and cytotoxicity of two compounds (e.g., Drug 1 and Drug 2) in combinations of five versus nine half-log concentrations. The assay was performed using a microtiter plate format for allocation of media, drug, cells, and virus. […] Cells were processed 72 hr later when the cells were still sub-confluent. […] The cytotoxicity was evaluated as the concentration of the drug that reduced cell numbers as described in Example 2.
Compounds of this invention were tested as “Drug 2” at nine concentrations between 0.0078 to 2.0 μM. Interferon-alpha (Sigma) was tested as Drug 1 at 0.005 to 0.5 international units per mL (IU/mL). The data obtained from these checkerboard assays were analyzed with the MacSynergy II (v2.01) (Prichard & Shipman, 1990, Antiviral Res. 14:181-205) and Delta Graph (v1.5d) programs. Each data point used to create three-dimensional plots (FIGS. 1A-1C) was derived from the result of triplicate samples. The statistical relevance of the data was analyzed and plotted at one of three confidence levels (68%, 95% or 99%) to display combinatorial results as additive, synergistic or antagonistic.
Effects of the drug combinations were calculated based on the activity of each compound when tested alone. The expected additive antiviral protection was subtracted from the experimentally determined antiviral activity at each combination concentration resulting in a positive value (synergy), a negative value (antagonism) or zero (additive). […] Slightly synergistic activity and highly synergistic activity have been operationally defined as yielding synergy volumes of 50-100 and >100, respectively.
(§2) Compounds and combinations were evaluated in the HCV replicon assay described in Example 5 with changes noted below.
as §2
(§3) Effects of the drug combinations were calculated based on the activity of each compound when tested alone. The expected additive antiviral protection was subtracted from the experimentally determined antiviral activity at each combination concentration resulting in a positive value (synergy), a negative value (antagonism), or zero (additivity). The results of the combination assays are presented three dimensionally at each combination concentration, yielding a surface of activity extending above (synergy) or below (antagonism) the plane of additivity. The volume of the surface is calculated and expressed as a synergy volume (in units of concentration times concentration times percent; e.g. μM2%, nM2%, nMμM %, etc.) calculated at the 95% confidence interval.

[5] = test system: human hepatoma cell line ET; experiment: HCV RNA replicon drug-drug combination, cytotoxicity volume; details: in combination with Compound 3; FIG. 3B
Method: as §1, §2, §3

[6] = test system: human hepatoma cell line ET; details: for IC90: read-out: Cytotoxicity IC90
Method: The compounds were dissolved in DMSO at five half-log concentrations each, ranging from either 0.02 to 2.0 μM, 0.03 to 3 μM, 2.0 to 20 μM, or 1 to 100 μM. Subconfluent cultures of the ET line were plated out into 96 well plates dedicated for the analysis of cell numbers (cytotoxicity) or antiviral activity and the next day the compounds were added to the appropriate wells. The cells were processed 72 h later when the cells were still subconfluent. […] Cytotoxicity was expressed as IC50 and IC90, the concentration of compound that inhibited cell viability by 50% and 90%, respectively. Compound IC50 and IC90 values were calculated using a colorimetric assay as an indication of cell numbers and cytotoxicity. […] Cyclosporine was also tested by way of comparison.
For single-compound assays, the compounds were dissolved in DMSO at five half-log concentrations each, ranging from either 0.02 to 2 μM or 0.2 to 20 μM. Compound EC50 and EC90 values, as well as IC50 and IC90 values, were determined according to Example 2. […] Cyclosporine A was also tested.

[7] = test system: HCV; details: interferon as single agent or with ribavirin; cited from earlier work
[8] = in combination with 2′-C-methyl-cytidine, 95% confidence interval
[9] = in combination with IFNα, 95% confidence interval
[10] = read-out: Cytotoxicity IC50, Example 2, ET cells, 72 h, colorimetric assay
[11] = Example 2, ET cells, 72 h, colorimetric assay
[12] = read-out: IC50 of compound alone (cytotoxicity), Example 5 (IFNα combination experiment), single compound

## C[C@@]1(O)[C@H](O)[C@@H](CO)O[C@H]1n1ccc(N)nc1=O [2′-C-methyl-cytidine, reference compound]
[1]
  EC50: 0.75 µM

## CC=CCC(C)C(O)C1C(=O)NC(CC)C(=O)N(C)C(OCCN(C)C)C(=O)N(C)C(CC(C)C)C(=O)NC(C(C)C)C(=O)N(C)C(CC(C)C)C(=O)NC(C)C(=O)NC(C)C(=O)N(C)C(CC(C)C)C(=O)N(C)C(CC(C)C)C(=O)N(C)C(C(C)C)C(=O)N1C (stereo not shown) [C, 3-(2-N,N-dimethylaminoethoxy)cyclosporin]
[2]
  drug interaction, anti-BVDV: Additive
[3]
  cytotoxicity interaction of the combination: Antagonistic cytotoxicity

## CC=CCC(C)C(O)C1C(=O)NC(CC)C(=O)N(C)C(SCCN(C)C)C(=O)N(C)C(CC(C)(C)O)C(=O)NC(C(C)C)C(=O)N(C)C(CC(C)C)C(=O)NC(C)C(=O)NC(C)C(=O)N(C)C(CC(C)C)C(=O)N(C)C(CC(C)C)C(=O)N(C)C(C(C)C)C(=O)N1C [Compound O, 3-[(R)-2-(N,N-dimethylamino)ethylthio-Sar]-4-(gamma-hydroxymethylleucine)cyclosporin]
[4]; [8]
  antiviral synergy volume: 228 μM^2%
  drug interaction (antiviral) of the combination: highly synergistic (Slightly synergistic activity and highly synergistic activity have been operationally defined as yielding synergy volumes of 50-100 and >100, respectively)
[4]; in combination with Compound 3 (HCV NS3-4A protease inhibitor), FIG. 3A
  drug interaction (antiviral) of the combination: additive or mildly synergistic
[4]; [9]
  antiviral synergy volume: 122 IU/mLμM %
  drug interaction (antiviral) of the combination: highly synergistic (Slightly synergistic activity and highly synergistic activity have been operationally defined as yielding synergy volumes of 50-100 and >100, respectively)
[5]
  cytotoxicity interaction of the combination: antagonistic cytotoxicity
[3]
  cytotoxicity interaction of the combination: Antagonistic cytotoxicity
[6]; [10]
  IC50: 13.4 µM
[6]; [11]
  IC90: > 20 µM
[6]; [12]
  IC50: > 2 µM
[6]; read-out: IC50 of compound alone (cytotoxicity), Example 6, single compound
  IC50: > 2 µM

## CC=CCC(C)C(O)C1C(=O)NC(CC)C(=O)N(C)C(OC)C(=O)N(C)C(CC(C)(C)O)C(=O)NC(C(C)C)C(=O)N(C)C(CC(C)C)C(=O)NC(C)C(=O)NC(C)C(=O)N(C)C(CC(C)C)C(=O)N(C)C(CC(C)C)C(=O)N(C)C(C(C)C)C(=O)N1C (stereo not shown) [Compound T, 3-(methoxy)-4-(gamma-hydroxymethylleucine)cyclosporin]
[4]; [9]
  antiviral synergy volume: 6 IU/mLμM %
[6]; [10]
  IC50: > 2 µM
[6]; [11]
  IC90: > 2 µM
[6]; [12]
  IC50: > 2 µM

## interferon
[7]
  share of the subject population in which the virus is eradicated: 33-46%
